Molecules are shown by their SMILES. Peptide text beside a SMILES is read from it.

For this assay, the target named is Glypican-3 (Homo sapiens, UniProt P51654). The assay can be described thus: Binding affinity to GPC3 (unknown origin) assessed as dissociation constant by fluorescence polarization assay.
Glypican-3, sequence (P51654 25-358 limits assumed): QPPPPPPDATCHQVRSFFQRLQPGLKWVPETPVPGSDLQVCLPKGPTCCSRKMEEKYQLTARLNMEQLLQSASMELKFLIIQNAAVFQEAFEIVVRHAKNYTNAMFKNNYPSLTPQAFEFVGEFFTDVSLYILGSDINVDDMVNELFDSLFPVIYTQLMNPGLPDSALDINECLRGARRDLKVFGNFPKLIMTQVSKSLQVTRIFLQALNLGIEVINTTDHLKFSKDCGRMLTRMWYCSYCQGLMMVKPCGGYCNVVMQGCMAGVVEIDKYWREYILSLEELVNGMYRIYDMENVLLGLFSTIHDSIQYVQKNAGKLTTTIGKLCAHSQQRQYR
Glypican-3, sequence (P51654 359-554 limits assumed): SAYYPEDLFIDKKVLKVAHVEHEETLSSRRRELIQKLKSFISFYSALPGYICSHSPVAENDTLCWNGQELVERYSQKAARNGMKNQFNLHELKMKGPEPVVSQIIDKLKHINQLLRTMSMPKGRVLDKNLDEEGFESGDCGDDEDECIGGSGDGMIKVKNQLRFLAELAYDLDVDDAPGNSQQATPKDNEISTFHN
With `C=Cc1c(C)c2cc3nc(c(CC(=O)O)c4[nH]c(cc5nc(cc1[nH]2)C(C)=C5CC)c(C)c4C(=O)NCCCC(=O)N[C@@H](CCCCN)C(=O)N[C@@H](CCCCN)C(=O)N[C@@H](CCCCN)C(=O)N[C@@H](CCCNC(=N)N)C(=O)N[C@@H](CC(C)C)C(=O)N[C@@H](CC(N)=O)C(=O)N[C@H](C(=O)NCC(=O)NCC(=O)N[C@H](C(=O)N[C@@H](Cc1ccc(O)cc1)C(=O)N[C@@H](Cc1ccccc1)C(=O)N[C@@H](CC(C)C)C(=O)N[C@H](C(=O)N[C@H](C(=O)N[C@@H](CCCNC(=N)N)C(=O)N[C@@H](CCC(N)=O)C(=O)O)[C@@H](C)O)[C@@H](C)O)[C@@H](C)O)C(C)C)[C@@H](CCC(=O)O)[C@@H]3C` (HELM PEPTIDE1{[C=Cc1c(C)c2cc3nc(c(CC(=O)O)c4[nH]c(cc5nc(cc1[nH]2)C(C)=C5CC)c(C)c4C(=O)[*:2])[C@@H](CCC(=O)O)[C@@H]3C].[O=C(CCCN[*:1])[*:2]].K.K.K.R.L.N.V.G.G.T.Y.F.L.T.T.R.Q}$$$$V2.0), the Kd stood at 300 nM.

In the case of `C=Cc1c(C)c2cc3nc(c(CC(=O)O)c4[nH]c(cc5nc(cc1[nH]2)C(C)=C5CC)c(C)c4C(=O)NCCCC(=O)N[C@@H](CC(=O)O)C(=O)N[C@@H](Cc1ccc(O)cc1)C(=O)N[C@@H](CCC(=O)O)C(=O)N[C@@H](CCSC)C(=O)N[C@@H](Cc1cnc[nH]1)C(=O)N[C@@H](CC(C)C)C(=O)N[C@@H](Cc1c[nH]c2ccccc12)C(=O)N[C@@H](Cc1c[nH]c2ccccc12)C(=O)NCC(=O)N[C@H](C(=O)N[C@@H](CCC(=O)O)C(=O)N[C@@H](CC(C)C)C(=O)O)[C@@H](C)O)[C@@H](CCC(=O)O)[C@@H]3C` (HELM PEPTIDE1{[C=Cc1c(C)c2cc3nc(c(CC(=O)O)c4[nH]c(cc5nc(cc1[nH]2)C(C)=C5CC)c(C)c4C(=O)[*:2])[C@@H](CCC(=O)O)[C@@H]3C].[O=C(CCCN[*:1])[*:2]].D.Y.E.M.H.L.W.W.G.T.E.L}$$$$V2.0), the Kd amounted to 300 nM. Next, `C=Cc1c(C)c2cc3nc(c(CC(=O)O)c4[nH]c(cc5nc(cc1[nH]2)C(C)=C5CC)c(C)c4C(=O)NCCCC(=O)N[C@@H](CCCNC(=N)N)C(=O)N[C@@H](CC(C)C)C(=O)N[C@@H](CC(N)=O)C(=O)N[C@H](C(=O)NCC(=O)NCC(=O)N[C@H](C(=O)N[C@@H](Cc1ccc(O)cc1)C(=O)N[C@@H](Cc1ccccc1)C(=O)N[C@@H](CC(C)C)C(=O)N[C@H](C(=O)N[C@H](C(=O)N[C@@H](CCCNC(=N)N)C(=O)N[C@@H](CCC(N)=O)C(=O)O)[C@@H](C)O)[C@@H](C)O)[C@@H](C)O)C(C)C)[C@@H](CCC(=O)O)[C@@H]3C` (HELM PEPTIDE1{[C=Cc1c(C)c2cc3nc(c(CC(=O)O)c4[nH]c(cc5nc(cc1[nH]2)C(C)=C5CC)c(C)c4C(=O)[*:2])[C@@H](CCC(=O)O)[C@@H]3C].[O=C(CCCN[*:1])[*:2]].R.L.N.V.G.G.T.Y.F.L.T.T.R.Q}$$$$V2.0): 300 nM.

The record behind these values is BindingDB's records for PubMed 38118394 (Second Military Medical University (Naval Medical …).
